Measured values from patent US12528792B2, “Sulfonamide compounds and the use thereof in the treatment of cancer” (TROBIO THERAPEUTICS PTY LTD, priority 2019, dated 2026).

Columns and labels:
A2780 (ovarian) cells = test: Anti-proliferative activity, Cell-Titre luminescent viability assay; assay type: cell-based; details: Homo sapiens, 72 h exposure, Cell-Titre luminescent reagent
Protocol: (§1) The ability of compounds of the disclosure to inhibit the proliferation of cancer cells representative of non-small cell lung cancer and ovarian cancer (Table 1), and pancreatic cancer, colorectal cancer and prostate cancer (Table 2) was assessed. Briefly, a predetermined number of cells as calculated from cell growth assays for each of the cell lines employed were seeded into their respective culture medium (using ATCC culture parameters—http://www.atcc.org) and cultured for 24 h at 37° C. and 5% CO2 in 96-well culture plates. Once attached, each cell line was then exposed to various concentrations of each respective analogue (100, 30, 10, 3, 1 and 0.3 µM or 30, 10, 3, 1, 0.3 and 0.1 μM), cultured for a further 72 h and exposed to Cell-Titre luminescent reagent (100 μL/well) for a further 30 min. Luminescence was captured using an EnVision multilabel reader and the data for each analogue concentration compared against no treatment control. Cell viability was normalised to control (vehicle alone) and dose response curves, and half maximal effective concentration (EC50) values were determined using Graph Pad Prism 6 (nonlinear regression sigmoidal dose-response variable slope).

A549 (NSCLC) cells = test: as above; assay type: cell-based; details: Homo sapiens, 72 h exposure, Cell-Titre luminescent reagent
Protocol: as §1

SMILES	IC50 (A2780 (ovarian) cells)	IC50 (A549 (NSCLC) cells)
O=C(Nc1ccc(F)cn1)c1ccn(S(=O)(=O)c2ccc3[nH]ccc3c2)c1 [Compound 72]	> 30 µM	3.45 µM
Cn1cc(S(=O)(=O)N2CCC(C(=O)NC3CCCCC3)CC2)cc1C(N)=O [Compound 31, 1-((5-carbamoyl-1-methyl-1H-pyrrol-3-yl)sulfonyl)-N-cyclohexylpiperidine-4-carboxamide]	> 100 µM	> 100 µM
O=C(Nc1ccc(Cl)cc1)c1ccn(S(=O)(=O)c2ccc3[nH]ccc3c2)n1 [Compound 77, 1-((1H-indol-5-yl)sulfonyl)-N-(4-chlorophenyl)-1H-pyrazole-3-carboxamide]	> 30 µM	19 µM
O=C(Nc1ccc(Cl)nc1)c1ccn(S(=O)(=O)c2ccc3[nH]ccc3c2)n1 [Compound 87, 1-((1H-indol-5-yl)sulfonyl)-N-(6-chloropyridin-3-yl)-1H-pyrazole-3-carboxamide]	≥ 30 µM	> 30 µM
COc1ccc(NC(=O)c2ccn(S(=O)(=O)c3ccc4[nH]ccc4c3)c2)cc1 [Compound 102, 1-((1H-indol-5-yl)sulfonyl)-N-(4-methoxyphenyl)-1H-pyrrole-3-carboxamide]	13.4 µM	16.1 µM
COc1ccc(NC(=O)c2ccn(S(=O)(=O)c3ccc4[nH]ccc4c3)c2)cc1F [Compound 103, 1-((1H-indol-5-yl)sulfonyl)-N-(3-fluoro-4-methoxyphenyl)-1H-pyrrole-3-carboxamide]	> 30 µM	> 30 µM
O=C(Nc1ccc(F)cc1)c1ccn(S(=O)(=O)c2ccc3[nH]ccc3c2)n1 [Compound 76, 1-((1H-indol-5-yl)sulfonyl)-N-(4-fluorophenyl)-1H-pyrazole-3-carboxamide]	23.8 µM	> 30 µM
O=C(Nc1ccc(Cl)cc1)c1ccn(S(=O)(=O)c2ccc3[nH]ccc3c2)c1 [Compound 66, 1-((1H-indol-5-yl)sulfonyl)-N-(4-chlorophenyl)-1H-pyrrole-3-carboxamide]	13.6 µM	15.9 µM
Cc1ccc(NC(=O)c2ccn(S(=O)(=O)c3cc(C(N)=O)n(C)c3)c2)cc1O [Compound 19, 4-((3-((3-hydroxy-4-methylphenyl)carbamoyl)-1H-pyrrol-1-yl)sulfonyl)-1-methyl-1H-pyrrole-2-carboxamide]	≥ 100 µM	> 100 µM
O=C(Nc1ccc(F)cn1)c1ccn(S(=O)(=O)c2ccc3[nH]ccc3c2)n1 [Compound 84, 1-((1H-indol-5-yl)sulfonyl)-N-(5-fluoropyridin-2-yl)-1H-pyrazole-3-carboxamide]	> 30 µM	> 30 µM
CCc1ccccc1NC(=O)C1CCN(S(=O)(=O)c2ccc3[nH]ccc3c2)CC1 [Compound 61, 1-((1H-indol-5-yl)sulfonyl)-N-(2-ethylphenyl)piperidine-4-carboxamide]	> 30 µM	> 30 µM
Cc1ccccc1NC(=O)C1CCN(S(=O)(=O)c2ccc3[nH]ccc3c2)CC1 [Compound 62, 1-((1H-indol-5-yl)sulfonyl)-N-(o-tolyl)piperidine-4-carboxamide]	> 30 µM	> 30 µM
CCC(C)c1ccc(NC(=O)N2CCN(S(=O)(=O)c3ccc4c(c3)CCN4)CC2)cc1 (stereo not shown) [Compound 12, N-(4-(sec-butyl)phenyl)-4-(indolin-5-ylsulfonyl)piperazine-1-carboxamide]	> 100 µM	> 100 µM
COc1ccc(NC(=O)c2ccn(S(=O)(=O)c3ccc4[nH]ccc4c3)n2)cc1F [Compound 116, 1-((1H-indol-5-yl)sulfonyl)-N-(3-fluoro-4-methoxyphenyl)-1H-pyrazole-3-carboxamide]	> 30 µM	13.4 µM
CCC(C)c1ccc(NC(=O)N2CCN(S(=O)(=O)c3cc(C(N)=O)n(C)c3)CC2)cc1 (stereo not shown) [Compound 9, N-(4-(sec-butyl)phenyl)-4-((5-carbamoyl-1-methyl-1H-pyrrol-3-yl)sulfonyl)piperazine-1-carboxamide]	> 100 µM	> 100 µM
O=C(Nc1ccc2c(c1)OCO2)c1ccn(S(=O)(=O)c2ccc3[nH]ccc3c2)n1 [Compound 117, 1-((1H-indol-5-yl)sulfonyl)-N-(benzo[d][1,3]dioxol-5-yl)-1H-pyrazole-3-carboxamide]	> 30 µM	> 30 µM
Cc1cc(F)cc(NC(=O)c2ccn(S(=O)(=O)c3ccc4[nH]ccc4c3)c2)c1 [Compound 56, 1-((1H-indol-5-yl)sulfonyl)-N-(3-fluoro-5-methylphenyl)-1H-pyrrole-3-carboxamide]	19.5 µM	17.9 µM
O=C(Nc1ccc(Cl)cn1)c1ccn(S(=O)(=O)c2ccc3[nH]ccc3c2)n1 [Compound 85]	21.3 µM	11.1 µM
CCc1ccccc1NC(=O)c1ccn(S(=O)(=O)c2ccc3[nH]ccc3c2)c1 [Compound 42, 1-((1H-indol-5-yl)sulfonyl)-N-(2-ethylphenyl)-1H-pyrrole-3-carboxamide]	13.4 µM	9.8 µM
Cc1ccc(NC(=O)N2CCN(S(=O)(=O)c3ccc4c(c3)CCN4)CC2)cc1O [Compound 13, N-(3-hydroxy-4-methylphenyl)-4-(indolin-5-ylsulfonyl)piperazine-1-carboxamide]	> 100 µM	> 100 µM
O=C(Nc1ccc(F)nc1)c1ccn(S(=O)(=O)c2ccc3[nH]ccc3c2)n1 [Compound 86, 1-((1H-indol-5-yl)sulfonyl)-N-(6-fluoropyridin-3-yl)-1H-pyrazole-3-carboxamide]	> 30 µM	> 30 µM
Cc1ccc(NC(=O)C2CCN(S(=O)(=O)c3cc(C(N)=O)n(C)c3)CC2)cc1O [Compound 1, 1-((5-carbamoyl-1-methyl-1H-pyrrol-3-yl)sulfonyl)-N-(3-hydroxy-4-methylphenyl)piperidine-4-carboxamide]	> 100 µM	> 100 µM

More lines, in order of falling IC50 (A2780 (ovarian) cells), values ahead:

IC50 (A2780 (ovarian) cells)	IC50 (A549 (NSCLC) cells)	SMILES
13.2 µM	4.84 µM	O=C(Nc1ccc(F)c(F)c1)c1ccn(S(=O)(=O)c2ccc3[nH]ccc3c2)n1 [Compound 80, 1-((1H-indol-5-yl)sulfonyl)-N-(3,4-difluorophenyl)-1H-pyrazole-3-carboxamide]
12.2 µM	13.8 µM	O=C(Nc1ccc(F)c(Cl)c1)c1ccn(S(=O)(=O)c2ccc3[nH]ccc3c2)c1 [Compound 70, 1-((1H-indol-5-yl)sulfonyl)-N-(3-chloro-4-fluorophenyl)-1H-pyrrole-3-carboxamide]
11.8 µM	10.7 µM	Cc1cc(C)cc(NC(=O)c2ccn(S(=O)(=O)c3ccc4[nH]ccc4c3)c2)c1 [Compound 52, 1-((1H-indol-5-yl)sulfonyl)-N-(3,5-dimethylphenyl)-1H-pyrrole-3-carboxamide]
11 µM	11.3 µM	CCc1ccc(NC(=O)c2ccn(S(=O)(=O)c3ccc4[nH]ccc4c3)c2)cc1 [Compound 40, 1-((1H-indol-5-yl)sulfonyl)-N-(4-ethylphenyl)-1H-pyrrole-3-carboxamide]
10.5 µM	16.1 µM	O=C(Nc1ccc(F)c(Cl)c1)c1ccn(S(=O)(=O)c2ccc3[nH]ccc3c2)n1 [Compound 82, 1-((1H-indol-5-yl)sulfonyl)-N-(3-chloro-4-fluorophenyl)-1H-pyrazole-3-carboxamide]
9.85 µM	5.44 µM	CCC(C)c1ccc(NC(=O)c2ccn(S(=O)(=O)c3ccc4[nH]ccc4c3)n2)cc1F (stereo not shown) [Compound 106, 1-((1H-indol-5-yl)sulfonyl)-N-(4-(sec-butyl)-3-fluorophenyl)-1H-pyrazole-3-carboxamide]
8.81 µM	5.11 µM	CC(C)Cc1ccc(NC(=O)c2ccn(S(=O)(=O)c3ccc4[nH]ccc4c3)n2)cc1F [Compound 112, 1-((1H-indol-5-yl)sulfonyl)-N-(3-fluoro-4-isobutylphenyl)-1H-pyrazole-3-carboxamide]
8.2 µM	13.1 µM	O=C(Nc1cc(F)cc(F)c1)c1ccn(S(=O)(=O)c2ccc3[nH]ccc3c2)c1 [Compound 54, 1-((1H-indol-5-yl)sulfonyl)-N-(3,5-difluorophenyl)-1H-pyrrole-3-carboxamide]
7.51 µM	8.51 µM	CCC(C)c1ccc(NC(=O)c2ccn(S(=O)(=O)c3ccc4[nH]ccc4c3)n2)cc1 (stereo not shown) [Compound 105, 1-((1H-indol-5-yl)sulfonyl)-N-(4-(sec-butyl)phenyl)-1H-pyrazole-3-carboxamide]
7.5 µM	8.06 µM	CCCc1ccc(NC(=O)c2ccn(S(=O)(=O)c3ccc4[nH]ccc4c3)n2)cc1F [Compound 110, 1-((1H-indol-5-yl)sulfonyl)-N-(3-fluoro-4-propylphenyl)-1H-pyrazole-3-carboxamide]
5.28 µM	7.84 µM	CC(C)c1ccc(NC(=O)c2ccn(S(=O)(=O)c3ccc4[nH]ccc4c3)c2)cc1F [Compound 95, 1-((1H-indol-5-yl)sulfonyl)-N-(3-fluoro-4-isopropylphenyl)-1H-pyrrole-3-carboxamide]
4.9 µM	7.47 µM	CC(C)Cc1ccc(NC(=O)c2ccn(S(=O)(=O)c3ccc4[nH]ccc4c3)c2)cc1F [Compound 99, 1-((1H-indol-5-yl)sulfonyl)-N-(3-fluoro-4-isobutylphenyl)-1H-pyrrole-3-carboxamide]
4.32 µM	7.92 µM	CCC(C)c1ccc(NC(=O)c2ccn(S(=O)(=O)c3ccc4[nH]ccc4c3)c2)cc1F (stereo not shown) [Compound 94, 1-((1H-indol-5-yl)sulfonyl)-N-(4-(sec-butyl)-3-fluorophenyl)-1H-pyrrole-3-carboxamide]
